Assay results as given in the Kinase Knowledgebase extract (Sharma et al. 2016).

The compounds below were run against MAPK14;MAPK11;MAPK12 (human) (UniProt Q16539) (assay: Inhibition of p38 Kinase Activity).

Compound | IC50
Cc1ccccc1NC(=O)N1CC2CC1CN2c1nc(NCC(C)c2ccccc2)nc(Nc2ccc3ncsc3c2)n1 (stereo unspecified) | < 10000 nM
CNCCN(C)c1nc(NC[C@@H]2CC[C@H]3C[C@@H]2C3(C)C)nc(Nc2ccc3ncsc3c2)n1 | < 10000 nM
CC1(C)C2CCC(CNc3nc(N)nc(Nc4ccc(S(=O)(=O)N(C=O)c5ncccn5)cc4)n3)C1C2 (stereo unspecified) | < 10000 nM
CC(CNc1nc(Nc2ccc3ncsc3c2)nc(N2CCN(C(=O)c3cccnc3)CC2)n1)c1ccccc1 (stereo unspecified) | < 10000 nM
CNC1CCN(c2cc(NCCOC(C)C)nc(-n3cnc4cc(C)ccc43)n2)C1 (stereo unspecified) | < 10000 nM
CNCCN(C)c1nc(NCc2ccc3c(c2)OCO3)nc(NCC(C)c2ccccc2)n1 (stereo unspecified) | < 10000 nM
CC1(C)C2CCC(CNc3nc(Nc4ccc5ncsc5c4)cc(N4CCNCC4)n3)C1C2 (stereo unspecified) | < 10000 nM
Nc1nc(NCCc2ccccc2)nc(Nc2ccc(S(=O)(=O)N(C=O)c3ncccn3)cc2)n1 | < 10000 nM
COC1CCCC(C(=O)N2CCN(c3nc(NCC(C)c4ccccc4)nc(Nc4ccc5ncsc5c4)n3)CC2)C1 (stereo unspecified) | < 10000 nM
CC1(C)[C@H]2CC[C@@H](CNc3nc(Cl)nc(Nc4ccc5ncsc5c4)n3)[C@@H]1C2 | < 10000 nM
CCNC(=O)N1CC2CC1CN2c1nc(NCC(C)c2ccccc2)nc(Nc2ccc3ncsc3c2)n1 (stereo unspecified) | < 10000 nM
CC1(C)C2CCC(CNc3nc(Nc4ccc5scnc5c4)nc(N4CCNCC4)n3)C1C2 (stereo unspecified) | < 10000 nM
Clc1nc(Nc2ccc3ncsc3c2)nc(N[C@H]2C[C@H]2c2ccccc2)n1 | < 10000 nM
c1nc2ccc(Nc3nc(NCC4CCCO4)nc(NC4CC4)n3)cc2s1 (stereo unspecified) | < 10000 nM
CN(CCN(C)c1nc(NCc2ccc(F)cc2F)nc(-n2cnc3ccccc32)n1)C(=O)CCC(=O)O | < 10000 nM
CC(C)(Cc1ccccc1)Nc1nc(Nc2ccc3ncsc3c2)nc(N2CCNCC2)n1 | < 10000 nM
CN(CC1CCC2CC1C2(C)C)c1nc(Nc2ccc3ncsc3c2)nc(N2CCNCC2)n1 (stereo unspecified) | < 10000 nM
COCC(=O)N(C)CCCN(C)c1nc(NCC(C)c2ccccc2)nc(Nc2ccc3ncsc3c2)n1 (stereo unspecified) | < 10000 nM
CCNC(=O)N1CCN(c2nc(NC[C@@H]3CC[C@H]4C[C@@H]3C4(C)C)nc(Nc3ccc4ncsc4c3)n2)CC1 | < 10000 nM

Compound | IC50
CC(CNc1nc(Nc2ccc3ncsc3c2)nc(N(C)C)n1)c1ccc(Cl)cc1 (stereo unspecified) | < 10000 nM
CC(CNc1nc(Nc2ccc3ncsc3c2)nc(N2CC3CC2CN3C(=N)N)n1)c1ccccc1 (stereo unspecified) | < 10000 nM
CN(CCN(C)c1nc(NCCc2ccccc2)nc(Nc2ccc3ncsc3c2)n1)C(=O)CCC(=O)O | < 10000 nM
CNc1nc(NCc2ccc(F)cc2F)nc(Nc2ccc3ncsc3c2)n1 | < 10000 nM
CC(C)OCCNc1cc(N2CCNCC2)nc(-n2cnc3ccccc32)n1 | < 10000 nM
CCCc1nc(NCc2ccc(S(N)(=O)=O)cc2)nc(Nc2cccc(-c3ccccc3)c2)n1 | < 10000 nM
CNCCN(C)c1nc(NC[C@H](C)c2ccccc2)nc(Nc2ccc3ncsc3c2)n1 | < 10000 nM
Cc1ccc(-c2n[nH]c(=O)[nH]2)cc1Nc1nc(N(C)CC(C)(C)C)nc(N2CCCN(C)CC2)n1 | < 1000 nM
CCOCNc1nc(NCC(C)c2ccccc2)nc(Nc2ccc3ncsc3c2)n1 (stereo unspecified) | < 10000 nM
Cc1ccc(C(N)=O)cc1Nc1nc(N[C@H]2CCN(C3CCCC3)C2)nc(N(C)CC(C)C)n1 | < 1000 nM
Cc1ccc(C(N)=O)cc1Nc1nc(NC2Cc3ccccc3C2)nc(N[C@@H]2CCNC2)n1 | < 1000 nM
Cc1ccc(C(N)=O)cc1Nc1nc(N[C@@H]2CCCC[C@@H]2N)nc(N(C)CC(C)(C)C)n1 | < 1000 nM
CONC(=O)c1ccc(C)c(Nc2nc(N[C@H]3CNC(=O)C3)nc(N(C)CC(C)(C)C)n2)c1 | < 1000 nM
Cc1ccc(C(N)=O)cc1Nc1cc(NC(C)c2ccccc2)nc(NCC(N)=O)n1 (stereo unspecified) | < 1000 nM
CN(CC1CCCCC1)c1nc(Nc2ccc3ncsc3c2)nc(N2CCNCC2)n1 | < 10000 nM
CNC(=O)c1ccc(C)c(Nc2nc(NCC(C)(C)C)nc(N[C@H]3CCNC3)n2)c1 | < 1000 nM
Cc1ccc(C(N)=O)cc1Nc1nc(N[C@@H]2CCNC2)nc(N(C)CC2(C)CCCC2)n1 | < 1000 nM
Cc1ccc(C(N)=O)cc1Nc1nc(NCC(C)c2ccc(Cl)cc2)nc(N[C@H]2CCNC2)n1 (stereo partly specified) | < 1000 nM
COC(=O)CC(CNc1nc(Cl)nc(Nc2ccc3ncsc3c2)n1)c1ccc(Cl)cc1 (stereo unspecified) | < 10000 nM

Results, then the compound that gave them:

IC50 | Compound
< 1000 nM | Cc1ccc(C(N)=O)cc1Nc1nc(NC[C@@H]2CC[C@H]3C[C@H]2C3(C)C)nc(NC2CCNCC2)n1
< 1000 nM | Cc1ccc(C(N)=O)cc1Nc1nc(N[C@H]2CCNC2)nc(N(C)CC(C)C)n1
< 1000 nM | Cc1ccc(C(N)=O)cc1Nc1nc(NC2CCN(Cc3ccccc3)C2)nc(N(C)CC(C)C)n1 (stereo unspecified)
< 1000 nM | Cc1c(Cl)cc(C(N)=O)cc1Nc1nc(N[C@H]2CCNC2)nc(N(C)CC(C)(C)C)n1
< 1000 nM | COc1cccc(NC(=O)c2ccc(C)c(Nc3nc(N[C@H]4CCNC4)nc(N(C)CC(C)(C)C)n3)c2)c1
< 1000 nM | Cc1ccc(C(N)=O)cc1Nc1nc(N[C@H]2CCN(C)C2)nc(N(C)CC(C)(C)C)n1
< 1000 nM | Cc1ccc(C(N)=O)cc1Nc1nc(NC[C@H]2CCCN2)nc(N(C)CC(C)(C)C)n1
< 1000 nM | Cc1ccc(C(N)=O)cc1Nc1nc(NCC(C)(C)C)nc(N[C@H]2CCNC2)n1
< 1000 nM | CC(=O)Nc1ccc(C)c(Nc2nc(N[C@H]3CCNC3)nc(N(C)CC(C)(C)C)n2)c1
< 1000 nM | COCCC(=O)N1CC[C@@H](Nc2nc(Nc3cc(C(N)=O)ccc3C)nc(N(C)CC(C)C)n2)C1
< 1000 nM | Cc1ccc(C(N)=O)cc1Nc1nc(NC(C)C2CCCCC2)nc(N[C@H]2CCNC2)n1 (stereo partly specified)
< 1000 nM | COCCNC(=O)c1ccc(C)c(Nc2nc(N[C@H]3CCNC3)nc(N(C)CC(C)(C)C)n2)c1
< 1000 nM | CCCN1CC[C@@H](Nc2nc(Nc3cc(C(N)=O)ccc3C)nc(N(C)CC(C)C)n2)C1
< 1000 nM | Cc1ccc(CO)cc1Nc1nc(N[C@H]2CCNC2)nc(N(C)CC(C)(C)C)n1
< 1000 nM | CONC(=O)c1ccc(C)c(Nc2nc(NCCNC(C)=O)nc(N(C)CC(C)(C)C)n2)c1
< 1000 nM | Cc1ccc(C(N)=O)cc1Nc1nc(N[C@H]2CCN(Cc3cccc(F)c3)C2)nc(N(C)CC(C)C)n1
< 1000 nM | Cc1ccc(C(N)=O)cc1Nc1nc(N[C@@H]2CCN(C(C)C(F)(F)F)C2)nc(N(C)CC(C)(C)C)n1 (stereo partly specified)
< 1000 nM | CONC(=O)c1ccc(C)c(Nc2nc(N(C)CC(C)(C)C)nc(N3CCCN(C)CC3)n2)c1
< 1000 nM | CONC(=O)c1ccc(C)c(Nc2nc(N[C@@H]3CCNC3)nc(N(C)CC(C)C(F)(F)F)n2)c1 (stereo partly specified)
< 1000 nM | CONC(=O)c1ccc(C)c(Nc2nc(NCCNc3ccccc3)nc(N(C)CC(C)(C)C)n2)c1
< 1000 nM | Cc1cccc(CN2CC[C@H](Nc3nc(Nc4cc(C(N)=O)ccc4C)nc(N(C)CC(C)C)n3)C2)n1
< 1000 nM | Cc1ccc(C(N)=O)cc1Nc1nc(NC2CCN(Cc3ccc(C(F)(F)F)cc3)C2)nc(N(C)CC(C)C)n1 (stereo unspecified)
< 1000 nM | Cc1ccc(C(N)=O)cc1Nc1nc(NC[C@H]2CCCN2)nc(N(C)CC2CCCC2)n1
< 1000 nM | CCNC(=O)c1ccc(C)c(Nc2nc(NC[C@H]3CCCN3)nc(N(C)CC(C)C)n2)c1
< 1000 nM | Cc1ccc(C(N)=O)cc1Nc1nc(N[C@H]2CCN(C(C)c3ccncc3)C2)nc(N(C)CC(C)C)n1 (stereo partly specified)
< 1000 nM | CNC(=O)c1ccc(C)c(Nc2nc(N[C@H]3CCN(Cc4ccccc4OC)C3)nc(N(C)CC(C)C)n2)c1
< 1000 nM | Cc1ccc(C(N)=O)cc1Nc1nc(NC2CCCN(C(C)C)C2)nc(N(C)CC(C)C)n1 (stereo unspecified)
< 1000 nM | Cc1ccc(CN2CC[C@H](Nc3nc(Nc4cc(C(N)=O)ccc4C)nc(N(C)CC(C)C)n3)C2)cc1
